{"source": "patent US10060933B2", "about": "“Methods for diagnosis and treatment of amyotrophic lateral sclerosis based on an increased level of interaction between TDP-43 polypeptide and NF-KB P65 polypeptide” (UNIVERSITE LAVAL, priority 2011, dated 2018)", "key": {"p65": {"molecular_target": "T1, p65 (Mus musculus, UniProt Q04207)", "T1 construct": "from tissue; host or cells: spinal cord of GFAP-luc/TDP-43^Wt transgenic mice (nuclear lysates)", "assay": "p65 EMSA on spinal cord tissue nuclear lysates", "type": "in vivo", "details": "treated vs untreated GFAP-luc/TDP-43^Wt mice", "experimental": "(§1) To study the in vivo effect of NF-κB inhibition on disease progression, we injected TDP-43^wt; GFAP-luc double transgenic mice with 3 mg/kg body weight of WA twice a week for 10-weeks starting at 30-weeks. […] We used TDP-43^wt; GFAP-luc double transgenic mice because the reporter luciferase (luc) allowed the longitudinal and non-invasive biophotonic imaging with CCD camera of the GFAP promoter activity which is a target of activated NF-κB. To analyse the spatial and temporal dynamics of astrocytes activation/GFAP induction in TDP-43 mouse model, we performed series of live imaging experiments. […] The downregulation of GFAP promoter activity was further confirmed in these mice using GFAP immunofluorescence of spinal cord sections of TDP-43^Wt mice (both drug-treated and untreated) (FIG. 8F). […] Down-regulation of GFAP along with reduction in active p65 levels in withaferin treated mice prompted us to analyse behavioural changes in these mice. […] The withaferin treated mice also had 40% reduction in the number of partially denervated neuromuscular junction (NMJ) (FIGS. 8E&G).\n48 hrs after transfection of CMV-p65 with pCMV-TDP43^WT or pCMV-TDP43^G348C and treatment with LPS, BV-2 cells were harvested and nuclear extracts prepared. […] Concentrations of nuclear proteins were determined on diluted samples using a Bradford assay (Biorad). […]"}, "Mac-2 positive cells": {"test_system": "Mac-2 positive cells", "assay": "Activated microglia (Mac-2, Cox-2) in spinal cord sections", "type": "in vivo, mouse", "experimental": "as §1\n(§2) 4% Paraformaldehyde (PFA) fixed spinal cord and brain sections of mice were sectioned and fixed on slides. For immunohistochemistry, tissues were treated with hydrogen-peroxide solution before permeabilisation. […]"}, "peripherin": {"test_system": "peripherin", "assay": "Peripherin immunofluorescence and immunoblot of spinal cord", "type": "in vivo, mouse", "details": "TDP-43^Wt mice, treated vs untreated", "experimental": "as §1\nSnap frozen spinal cords of mice were harvested with lysis buffer containing 25 mM HEPES-NaOH (pH 7.9), 150 mM NaCl, 1.5 mM MgCl2, 0.2 mM EDTA, 0.5% Triton-X-100, 1 mM dithiothreitol and protease inhibitor cocktail. Protein samples were estimated using Bradford method. The lysate was incubated with 50 μl of Dynabeads (Protein-G beads, Invitrogen), anti-TDP-43 polyclonal (ProteinTech, Chicago, Ill., USA) or anti-peripherin polyclonal antibody (AB1530, Chemicon, Billerica, Mass., USA). After subsequent washing, the beads were incubated overnight at 4° C. with […] of tissue lysate. Antibody-bound complexes were eluted by boiling in Laemmli sample buffer. Supernatants were resolved by 10% SDS-PAGE and transferred on nitrocellulose membrane (Biorad, Hercules, Calif., USA). The membrane was incubated with anti-ubiquitin antibody (1:1000, Abcam, Cambridge, Mass., USA). For other western blot assays, blots were incubated with primary antibodies against human monoclonal TARDBP antibody (1:1000, Abnova, clone E2-D3), peripherin polyclonal (1:1000, Chemcion—AB1530), peripherin monoclonal (1:500, Chemicon, AB1527), Clone NR4 for NF-L (1:1000, Sigma), Clone NN18 for NF-M (1:1000, Millipore) and Clone N52 for NF-H (1:1000, Millipore). Immunoreactive proteins were then visualized by chemiluminescence (Perkin and Elmer, Santa Clara, Calif., USA) as described previously (Dequen et al., 2008). Actin (1:10000, Chemicon) is used as a loading control.\nas §2"}, "GFAP-luc/TDP-43^Wt mice": {"test_system": "GFAP-luc/TDP-43^Wt mice", "assay": "Accelerating rotarod in TDP-43^Wt transgenic mice", "type": "in vivo, mouse", "experimental": "as §1\nAge matched control non-transgenic animals (n=10) and in TDP-43^Wt (n=10) littermates were injected twice a week with 0.9% saline intra-peritoneally. All the behavioral and imaging experiments were conducted in a double blind manner as such the experimenter had no knowledge of the drug treatment or the genotype of animals.\nAccelerating rotarod was performed on mice at 4 rpm speed with 0.25 rpm/sec acceleration as described elsewhere^30. Mice were subjected to three trials per session and every two weeks."}}, "note": "Entries after “also recorded” stand apart in the source; their conditions may differ.", "data": [{"smiles": "CC1=C(CO)C(=O)O[C@@H]([C@@H](C)[C@H]2CC[C@H]3[C@@H]4C[C@H]5O[C@]56[C@@H](O)C=CC(=O)[C@]6(C)[C@H]4CC[C@]23C)C1", "note": "[Withaferin A]", "values": [{"measurement": "nuclear active p65 (EMSA)", "setting": "p65", "value": "reduced amount of active p65; also recorded: much reduced nuclear active p65"}, {"measurement": "Mac-2^+ cells in L5 spinal cord", "setting": "Mac-2 positive cells; TDP-43^Wt (Withaferin treated) mice, untreated 13000±500/mm^3", "value": "6000±300 /mm^3"}, {"measurement": "activated microglia (Mac-2 and Cox-2 double immunofluorescence)", "setting": "Mac-2 positive cells; TDP-43^Wt mice, treated vs untreated", "value": "marked reduction in activated microglia"}, {"measurement": "peripherin in spinal cord (immunofluorescence, polyclonal antibody)", "setting": "peripherin; listed as Withaferin", "value": "reduced levels of peripherin"}, {"measurement": "peripherin levels in spinal cord (western blot / immunoblot, monoclonal antibody)", "setting": "peripherin; listed as Withaferin", "value": "reduced levels of peripherin"}, {"measurement": "peripherin in spinal cord (immunofluorescence, polyclonal antibody)", "setting": "peripherin; listed as withaferin", "value": "reduction of peripherin aggregates"}, {"measurement": "peripherin levels in spinal cord (western blot / immunoblot, monoclonal antibody)", "setting": "peripherin; listed as withaferin", "value": "reduced"}, {"measurement": "rotarod performance", "setting": "GFAP-luc/TDP-43^Wt mice; GFAP-luc/TDP-43^Wt mice, 3 mg/kg i.p. twice a week for 10 weeks, vs untreated, 3 mg/kg", "value": "significantly better motor performance; also recorded: much better rotarod performance"}, {"measurement": "ameliorated motor impairment compared to untreated mice", "setting": "GFAP-luc/TDP-43^Wt mice; TDP-43^WT or TDP-43^G348C transgenic mice", "value": "at least 4%"}, {"measurement": "rotarod performance after cessation of the drug treatment", "setting": "GFAP-luc/TDP-43^Wt mice; withaferin treated TDP-43 transgenic mice after cessation of treatment", "value": "decrease in rotarod performance"}]}]}
